The source made the active and inactive calls. No cut-off for these calls is given here.
How the values were obtained:
[1] = Plasma protein binding in human; assay type: ADME, cell-free; conditions: read-out: PPB (converted)
[2] = Plasma protein binding in rat; assay type: ADME, cell-free; conditions: read-out: PPB (converted)
[3] = Apparent permeability across apical to basal side in human Caco-2 cells at pH 6.5/7.4 measured at 5 uM by LC-MS/MS analysis; assay type: ADME, cell-based; conditions: Caco-2, pH 6.5
[4] = Metabolic stability in human hepatocytes assessed as half life; assay type: ADME, cell-based, Hepatocyte
[5] = Metabolic stability in rat hepatocytes assessed as half life; assay type: ADME, cell-based, Hepatocyte
[6] = Metabolic stability in human hepatocytes assessed as intrinsic clearance; assay type: ADME, cell-based, Hepatocyte; conditions: read-out: CLH
[7] = Permeability across basal to apical side in MDCK-MDR1 cells at pH 6.5/7.4 measured at 5 uM by LC-MS/MS analysis; assay type: ADME, cell-based, Canis lupus familiaris; conditions: dog, MDCK-MDR1, pH 6.5
[8] = Brain homogenate binding in rat; assay type: ADME, tissue-based
[9] = target: T1, Tryptophan 5-hydroxylase 1 (Homo sapiens) (UniProt P17752); experiment: Binding affinity to […] (unknown origin) assessed as dissociation rate constant by surface plasmon resonance analysis
T1 sequence (whole entry): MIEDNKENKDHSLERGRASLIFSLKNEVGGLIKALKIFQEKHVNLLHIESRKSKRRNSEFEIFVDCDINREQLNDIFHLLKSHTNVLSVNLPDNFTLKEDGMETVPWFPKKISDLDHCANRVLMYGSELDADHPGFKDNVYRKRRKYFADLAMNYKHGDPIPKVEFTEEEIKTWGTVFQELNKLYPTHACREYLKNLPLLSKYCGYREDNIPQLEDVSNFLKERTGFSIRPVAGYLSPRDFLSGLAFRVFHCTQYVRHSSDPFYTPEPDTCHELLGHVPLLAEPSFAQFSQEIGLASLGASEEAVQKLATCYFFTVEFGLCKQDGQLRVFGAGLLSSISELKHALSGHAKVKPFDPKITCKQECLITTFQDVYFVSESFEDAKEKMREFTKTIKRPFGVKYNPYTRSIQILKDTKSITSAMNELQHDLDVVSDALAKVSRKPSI

[10] = target: T2, Tryptophan 5-hydroxylase 1 (Homo sapiens, UniProt P17752); experiment: Binding affinity to […] (unknown origin) assessed as equilibrium dissociation constant by surface plasmon resonance analysis
T2 sequence (P17752 whole entry): T1 sequence (whole entry)

[11] = Mutagenicity in Salmonella typhimurium TA100 in presence or absence of rat liver S9 fraction by Ames test; assay type: toxicity; conditions: salmonella enterica subsp. enterica serovar typhimurium
[12] = target: Cytochrome P450 2C9 (Homo sapiens, UniProt P11712); experiment: Inhibition of CYP2C9 in human liver microsome using diclofenac as substrate measured upto 50 uM incubated for 10 mins followed by NADPH addition incubated for 10 mins by LC/MS/MS analysis; assay type: ADME; conditions: microsomes, 20 min
[13] = target: Cytochrome P450 2C19 (Homo sapiens, UniProt P33261); experiment: Inhibition of CYP2C19 in human liver microsome using S-mephenytoin as substrate measured upto 50 uM incubated for 10 mins followed by NADPH addition incubated for 10 mins by LC/MS/MS analysis; assay type: ADME; conditions: microsomes, 20 min
[14] = target: Cytochrome P450 2D6 (Homo sapiens, UniProt P10635); experiment: Inhibition of CYP2D6 in human liver microsome using dextromethorphan as substrate measured upto 50 uM incubated for 10 mins followed by NADPH addition incubated for 10 mins by LC/MS/MS analysis; assay type: ADME; conditions: microsomes, 20 min
[15] = target: ATP-dependent translocase ABCB1 (Homo sapiens, UniProt P08183); experiment: Inhibition of P-gp in human Caco-2 cells seeded in polyethylene membranes assessed as permeation in presence or absence of digoxin measured for 2 hrs by LC-MS/MS analysis based transporter assay; assay type: cell-based
[16] = target: Voltage-gated inwardly rectifying potassium channel KCNH2 (Homo sapiens, UniProt Q12809); experiment: Inhibition of hERG channel expressed in CHO cells by whole-cell patch clamp assay; assay type: toxicity, cell-based
[17] = Half life in CD-1 (ICR) mouse at 50 mg/kg, po measured upto 1440 mins by LC-MS/MS analysis; assay type: ADME, organism-based; conditions: in vivo
[18] = Tlast in CD-1 (ICR) mouse at 50 mg/kg, po measured upto 1440 mins by LC-MS/MS analysis; assay type: ADME, organism-based; conditions: in vivo, 24 h
[19] = Drug uptake in CD-1 (ICR) mouse lung at 50 mg/kg measured 2 hrs by LC-MS/MS analysis; assay type: ADME, organism-based; conditions: read-out: Drug uptake
[20] = Drug uptake in CD-1 (ICR) mouse brain at 50 mg/kg measured 0.5 hrs by LC-MS/MS analysis; assay type: ADME, organism-based; conditions: read-out: Drug uptake
[21] = Drug uptake in CD-1 (ICR) mouse brain at 50 mg/kg measured 2 hrs by LC-MS/MS analysis; assay type: ADME, organism-based; conditions: read-out: Drug uptake
[22] = AUMCExtra in Sprague-Dawley rat at 10 mg/kg, iv measured upto 1440 mins by LC-MS/MS analysis; assay type: ADME, organism-based; conditions: in vivo, 24 h
[23] = Cmax in Sprague-Dawley rat at 20 mg/kg, po measured upto 1440 mins by LC-MS/MS analysis; assay type: ADME, organism-based; set-up: time < 1440 min, dose 20 mg/kg, route po; conditions: in vivo
[24] = AUC (0 to last) in Sprague-Dawley rat at 20 mg/kg, po measured upto 1440 mins by LC-MS/MS analysis; assay type: ADME, organism-based; set-up: time < 1440 min, dose 20 mg/kg, route po; conditions: in vivo
[25] = AUC (0 to infinitive) in Sprague-Dawley rat at 20 mg/kg, po measured upto 1440 mins by LC-MS/MS analysis; assay type: ADME, organism-based; set-up: dose 20 mg/kg, time < 1440 min, route po; conditions: in vivo
[26] = AUC (0 to last) in Sprague-Dawley rat at 50 mg/kg, po measured upto 1440 mins by LC-MS/MS analysis; assay type: ADME, organism-based; set-up: dose 50 mg/kg, time < 1440 min, route po; conditions: in vivo
[27] = Oral bioavailability in Sprague-Dawley rat at 50 mg/kg measured upto 1440 mins by LC-MS/MS analysis; assay type: ADME, organism-based; conditions: in vivo
[28] = Drug uptake in Sprague-Dawley rat lung at 20 mg/kg, po measured at 0.5 hrs by LC-MS/MS analysis; assay type: ADME, organism-based; conditions: read-out: Drug uptake
[29] = Drug uptake in Sprague-Dawley rat brain at 20 mg/kg, po measured at 2 hrs by LC-MS/MS analysis; assay type: ADME, organism-based; conditions: in vivo, BLD = below limit of detection
[30] = Toxicity in C57BL/6N mouse assessed as general toxic effects at 1.5 to 15 mg/kg, po bid treated for 7 days; assay type: organism-based; conditions: in vivo, 168 h, dose 1.5-15 mg/kg, time 7 day
[31] = test system: Mus musculus; experiment: Effect on C57BL/6N mouse assessed as brain serotonin turnover measuring 5-HIAA/5-HT ratio at 1.5 to 50 mg/kg, po bid treated for 6 to 7 days; assay type: functional, organism-based; conditions: dose 1.5-50 mg/kg, time 6-7 day
[32] = Toxicity in C57BL/6N mouse assessed as behavioral changes at 1.5 to 50 mg/kg, po bid treated for 6 to 7 days; assay type: organism-based; conditions: in vivo, dose lower 1.5 mg/kg, time lower 6 day, dose upper 50 mg/kg, time upper 7 day
[33] = test system: Mus musculus; experiment: Effect on time spent in central zone of C57BL/6N mouse at 100 mg/kg, po treated for 14 days by locomotor activity test; assay type: functional, organism-based; conditions: time 14.0 day
[34] = test system: Mus musculus; experiment: Effect on total duration of immobility in C57BL/6N mouse at 50 mg/kg, po treated for 14 days by tail suspension test; assay type: functional, organism-based; conditions: time 14.0 day
[35] = Tlast in Sprague-Dawley rat at 20 mg/kg, po measured upto 1440 mins by LC-MS/MS analysis; assay type: ADME, organism-based; conditions: in vivo, 24 h

Cytochrome P450 2C9, sequence (P11712 whole entry): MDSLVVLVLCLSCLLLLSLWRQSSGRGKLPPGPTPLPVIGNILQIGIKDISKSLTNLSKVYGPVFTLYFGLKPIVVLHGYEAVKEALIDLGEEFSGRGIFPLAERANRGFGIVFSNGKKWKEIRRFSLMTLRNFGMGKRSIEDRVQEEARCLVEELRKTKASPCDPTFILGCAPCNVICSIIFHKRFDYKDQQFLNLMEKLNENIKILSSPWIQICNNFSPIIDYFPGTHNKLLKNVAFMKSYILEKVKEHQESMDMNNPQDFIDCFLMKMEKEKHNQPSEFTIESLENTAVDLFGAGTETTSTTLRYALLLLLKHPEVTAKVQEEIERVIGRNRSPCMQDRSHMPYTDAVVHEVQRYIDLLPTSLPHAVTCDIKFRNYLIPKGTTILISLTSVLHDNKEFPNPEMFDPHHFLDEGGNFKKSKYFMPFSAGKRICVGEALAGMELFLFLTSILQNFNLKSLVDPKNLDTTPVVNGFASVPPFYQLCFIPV
ATP-dependent translocase ABCB1, sequence (P08183 whole entry): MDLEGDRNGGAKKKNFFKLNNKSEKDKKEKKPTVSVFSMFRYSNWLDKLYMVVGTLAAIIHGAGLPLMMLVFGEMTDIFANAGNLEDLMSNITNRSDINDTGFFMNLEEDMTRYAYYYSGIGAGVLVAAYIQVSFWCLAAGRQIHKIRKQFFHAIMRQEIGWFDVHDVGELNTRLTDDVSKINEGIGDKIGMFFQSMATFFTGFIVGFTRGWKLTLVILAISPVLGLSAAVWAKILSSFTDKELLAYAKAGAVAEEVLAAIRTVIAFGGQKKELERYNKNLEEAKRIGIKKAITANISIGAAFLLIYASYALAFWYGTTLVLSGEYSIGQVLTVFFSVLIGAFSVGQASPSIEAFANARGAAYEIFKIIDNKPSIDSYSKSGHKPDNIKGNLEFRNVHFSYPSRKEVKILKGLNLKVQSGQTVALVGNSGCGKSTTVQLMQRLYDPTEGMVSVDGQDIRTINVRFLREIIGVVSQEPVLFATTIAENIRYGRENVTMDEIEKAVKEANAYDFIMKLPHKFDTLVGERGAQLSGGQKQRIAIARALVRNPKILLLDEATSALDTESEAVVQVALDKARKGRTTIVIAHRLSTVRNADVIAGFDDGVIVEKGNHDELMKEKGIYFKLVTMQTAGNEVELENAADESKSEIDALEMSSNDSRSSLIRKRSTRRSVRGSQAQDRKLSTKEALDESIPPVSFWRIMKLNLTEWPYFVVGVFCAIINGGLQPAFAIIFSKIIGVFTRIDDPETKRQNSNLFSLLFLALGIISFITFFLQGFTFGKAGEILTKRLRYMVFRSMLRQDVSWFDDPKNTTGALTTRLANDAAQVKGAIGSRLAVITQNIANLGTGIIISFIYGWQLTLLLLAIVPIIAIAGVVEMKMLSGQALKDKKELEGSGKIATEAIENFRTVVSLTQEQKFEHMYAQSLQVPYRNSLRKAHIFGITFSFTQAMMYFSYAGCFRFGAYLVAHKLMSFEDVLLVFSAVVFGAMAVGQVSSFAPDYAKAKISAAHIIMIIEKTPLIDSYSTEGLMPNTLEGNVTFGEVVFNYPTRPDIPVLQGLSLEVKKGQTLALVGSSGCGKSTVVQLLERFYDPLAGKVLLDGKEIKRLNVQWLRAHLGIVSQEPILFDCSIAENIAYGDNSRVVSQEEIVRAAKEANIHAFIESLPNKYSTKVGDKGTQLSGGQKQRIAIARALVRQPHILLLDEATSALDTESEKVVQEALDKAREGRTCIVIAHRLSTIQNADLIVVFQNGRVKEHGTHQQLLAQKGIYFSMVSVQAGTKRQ
Cytochrome P450 2C19, sequence (P33261 whole entry): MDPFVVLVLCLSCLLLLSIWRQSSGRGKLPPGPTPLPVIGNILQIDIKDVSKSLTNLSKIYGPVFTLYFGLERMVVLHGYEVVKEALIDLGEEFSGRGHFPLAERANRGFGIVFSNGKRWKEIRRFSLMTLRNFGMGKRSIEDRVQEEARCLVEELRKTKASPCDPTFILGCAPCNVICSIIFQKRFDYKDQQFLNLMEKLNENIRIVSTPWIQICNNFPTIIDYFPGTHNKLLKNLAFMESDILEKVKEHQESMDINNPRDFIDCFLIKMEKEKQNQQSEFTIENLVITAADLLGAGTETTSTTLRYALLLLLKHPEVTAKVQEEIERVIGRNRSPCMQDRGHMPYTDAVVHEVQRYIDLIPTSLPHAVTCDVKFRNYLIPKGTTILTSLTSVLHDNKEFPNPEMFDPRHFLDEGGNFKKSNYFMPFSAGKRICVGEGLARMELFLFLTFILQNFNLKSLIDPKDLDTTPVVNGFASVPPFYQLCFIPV
Voltage-gated inwardly rectifying potassium channel KCNH2, sequence (Q12809 whole entry): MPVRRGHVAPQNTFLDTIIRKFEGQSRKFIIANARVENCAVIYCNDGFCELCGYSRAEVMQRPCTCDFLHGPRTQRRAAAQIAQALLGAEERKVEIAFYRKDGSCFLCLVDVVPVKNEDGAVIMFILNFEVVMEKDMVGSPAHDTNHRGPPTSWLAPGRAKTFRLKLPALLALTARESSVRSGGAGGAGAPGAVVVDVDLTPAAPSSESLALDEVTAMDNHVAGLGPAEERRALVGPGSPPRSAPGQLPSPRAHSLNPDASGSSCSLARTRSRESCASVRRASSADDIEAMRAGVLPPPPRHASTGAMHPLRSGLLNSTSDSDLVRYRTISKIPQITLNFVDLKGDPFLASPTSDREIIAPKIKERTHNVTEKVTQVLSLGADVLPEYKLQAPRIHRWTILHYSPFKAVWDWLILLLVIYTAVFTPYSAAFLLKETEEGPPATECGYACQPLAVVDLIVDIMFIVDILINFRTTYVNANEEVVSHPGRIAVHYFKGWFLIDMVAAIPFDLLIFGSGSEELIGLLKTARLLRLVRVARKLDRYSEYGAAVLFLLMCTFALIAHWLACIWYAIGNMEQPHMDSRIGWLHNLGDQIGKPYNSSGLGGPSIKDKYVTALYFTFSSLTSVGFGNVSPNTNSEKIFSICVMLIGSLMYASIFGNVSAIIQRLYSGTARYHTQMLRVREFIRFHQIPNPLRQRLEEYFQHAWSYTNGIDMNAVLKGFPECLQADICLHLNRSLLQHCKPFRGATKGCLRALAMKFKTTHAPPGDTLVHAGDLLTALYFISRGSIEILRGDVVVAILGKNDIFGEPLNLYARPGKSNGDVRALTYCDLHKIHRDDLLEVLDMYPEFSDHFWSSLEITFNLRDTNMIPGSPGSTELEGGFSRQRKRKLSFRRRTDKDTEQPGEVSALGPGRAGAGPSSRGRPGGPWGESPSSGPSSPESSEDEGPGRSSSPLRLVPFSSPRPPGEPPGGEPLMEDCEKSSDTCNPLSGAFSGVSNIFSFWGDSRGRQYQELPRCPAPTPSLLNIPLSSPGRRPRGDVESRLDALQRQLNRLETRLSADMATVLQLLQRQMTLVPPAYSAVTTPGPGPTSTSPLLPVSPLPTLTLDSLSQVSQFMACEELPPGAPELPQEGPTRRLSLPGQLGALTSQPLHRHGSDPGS
Cytochrome P450 2D6, sequence (P10635 whole entry): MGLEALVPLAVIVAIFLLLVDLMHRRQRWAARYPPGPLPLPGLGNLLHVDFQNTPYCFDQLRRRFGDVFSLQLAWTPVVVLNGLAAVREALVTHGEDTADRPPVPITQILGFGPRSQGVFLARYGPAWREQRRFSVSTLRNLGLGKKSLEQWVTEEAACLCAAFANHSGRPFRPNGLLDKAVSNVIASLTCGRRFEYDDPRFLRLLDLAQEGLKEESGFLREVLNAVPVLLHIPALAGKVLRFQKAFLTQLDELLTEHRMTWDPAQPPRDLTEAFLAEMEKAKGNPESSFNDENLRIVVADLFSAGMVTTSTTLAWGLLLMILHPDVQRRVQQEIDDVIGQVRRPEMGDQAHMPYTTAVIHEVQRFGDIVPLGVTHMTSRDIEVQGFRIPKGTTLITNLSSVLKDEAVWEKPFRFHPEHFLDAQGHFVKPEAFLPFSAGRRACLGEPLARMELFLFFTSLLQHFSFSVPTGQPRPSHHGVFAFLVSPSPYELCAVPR

Compound: CCn1c(=O)[nH]c(=O)c2c1nc(Cc1cn3cc(C)sc3n1)n2CC1COC1
- fraction unbound [1]: 0.49
- fraction unbound [2]: 0.52
- Papp A→B at 5 µM [3]: 0.14 ×10⁻⁶ cm/s
- half-life [4]: > 2.42 h
- half-life [5]: > 2.42 h
- CLint scaled [6]: < 8.6 mL/min/kg
- Papp B→A at 5 µM [7]: 15 ×10⁻⁶ cm/s
- Activity [8]: 70%
- Kdiss [9]: 0.007 s⁻¹
- Kd [10]: 0.0032 µM
- Activity [11]: Non-Toxic
- inhibition (INH) [12]: Not Active
- inhibition (INH) [13]: Not Active
- inhibition (INH) [14]: Not Active
- IC50 [15]: > 100 µM
- IC50 [16]: > 30 µM
- half-life [17]: 1.76 h
- Tlast [18]: 12 h
- concentration at 2 h [19]: 168 ng/g
- concentration at 0.5 h [20]: 53 ng/g
- concentration at 2 h [21]: 46 ng/g
- AUMC [22]: 13.6%
- Cmax [23]: 2090 ng/mL
- AUC(0-t) at 24 h [24]: 3300 ng·h/mL
- AUC(0-inf) [25]: 3320 ng·h/mL
- AUC(0-t) at 24 h [26]: 8180 ng·h/mL
- bioavailability [27]: 32.7%
- concentration at 0.5 h [28]: 482 ng/g
- Drug uptake [29]: Bld
- Activity [30]: Non-Toxic
- Activity [31]: inactive
- Activity [32]: Non-Toxic
- Activity [33]: inactive
- Activity [34]: inactive
- Tlast [35]: 24 h
